# Results as given in ChEMBL document CHEMBL4619722, “Alanine scan-guided synthesis and biological evaluation of analogues of culicinin D, a potent anticancer peptaibol” (Bioorg Med Chem Lett, 2020).
# Numbered stars: 1 amine (or outer) side, 2 acyl side, 3 side chain; on linkers, the order of the positions; unused ones are H or OH. Square brackets hold non-standard residues; d marks the D form. Peptide text beside a SMILES is read from it. * marks the point of attachment. ξ: configuration not given here. X1 = CCC(=O)C[C@H](O)C[C@@H](C)C[C@H](N[*:1])C(=O)[*:2]; Gly(1-adamantyl) = N[C@H](C(=O)O)C12CC3CC(CC(C3)C1)C2; Nva(5-pentanoyl) = CCCCC(=O)CCC[C@H](N)C(=O)O; NH((S)CH(Me)CH2NHC2H4OH) = C[C@@H](CNCCO)N*; Gly(octyl) = CCCCCCCC[C@H](N)C(=O)O; X2 = O=C([C@H](CCCCO)N[*:1])[*:2]; Ala(cPr) = N[C@@H](CC1CC1)C(=O)O; X3 = C[C@H](NC[C@H](C)N*)C(=O)O; Cha = N[C@@H](CC1CCCCC1)C(=O)O; Chg = N[C@H](C(=O)O)C1CCCCC1; Ac6c = NC1(C(=O)O)CCCCC1; Nle = CCCC[C@H](N)C(=O)O; Ac5c = NC1(C(=O)O)CCCC1; Ac4c = NC1(C(=O)O)CCC1; Aib = CC(C)(N)C(=O)O; Butyryl = CCCC(=O)*; ξP = O=C(O)C1CCCN1; βAla = NCCC(=O)O
# Key:
# Assay type in all cases: functional, cell-based
# [1] = tested on: NCI-H460; test: Antiproliferative activity against human NCI-H460 cells
# [2] = tested on: T47D; test: Antiproliferative activity against human T47D cells
# [3] = tested on: MDA-MB-468; test: Antiproliferative activity against human MDA-MB-468 cells
# [4] = tested on: SK-BR-3; test: Antiproliferative activity against human SKBR3 cells
Structure (SMILES),IC50 [1],IC50 [2],IC50 [3],IC50 [4]
CCCCCCCC[C@H](NC(=O)C(C)(C)NC(=O)C(C)(C)NC(=O)[C@H](CCCCO)NC(=O)[C@@H]1CCCN1C(=O)CCC)C(=O)N[C@@H](CC(C)C)C(=O)NC(C)(C)C(=O)N[C@@H](CC(C)C)C(=O)NCCC(=O)N[C@@H](C)CNCCO (Butyryl-P[X2][Aib][Aib][Gly(octyl)]L[Aib]L[βAla]-{NH((S)CH(Me)CH2NHC2H4OH)}),45 nM,49 nM,39 nM,270 nM
CCCCCCCC[C@H](NC(=O)C(C)(C)NC(=O)C(C)(C)NC(=O)[C@H](CCCC(=O)CCCC)NC(=O)C1CCCN1C(=O)CCC)C(=O)N[C@@H](CC(C)C)C(=O)NC(C)(C)C(=O)N[C@@H](CC(C)C)C(=O)NCCC(=O)N[C@@H](C)CNCCO (stereo partly drawn) (Butyryl-[ξP][Nva(5-pentanoyl)][Aib][Aib][Gly(octyl)]L[Aib]L[βAla]-{NH((S)CH(Me)CH2NHC2H4OH)}),18 nM,11 nM,20 nM,47 nM
CCCCCCCC[C@H](NC(=O)C(C)(C)NC(=O)C(C)(C)NC(=O)[C@H](CCCC(=O)CCCC)NC(=O)C1CCCN1C(=O)CCC)C(=O)N[C@@H](CC(C)C)C(=O)NC(C)(C)C(=O)N[C@@H](CC(C)C)C(=O)NCCC(=O)N[C@@H](C)CN[C@@H](C)C(=O)O (some centres undefined) (Butyryl-[ξP][Nva(5-pentanoyl)][Aib][Aib][Gly(octyl)]L[Aib]L[βAla]-X3),291 nM,> 500 nM,> 500 nM,> 1000 nM
CCCCCCCC[C@H](NC(=O)C(C)(C)NC(=O)C(C)(C)NC(=O)[C@H](CCC(=O)O)NC(=O)[C@@H]1CCCN1C(=O)CCC)C(=O)N[C@@H](CC(C)C)C(=O)NC(C)(C)C(=O)N[C@@H](CC(C)C)C(=O)NCCC(=O)N[C@@H](C)CNCCO (Butyryl-PE[Aib][Aib][Gly(octyl)]L[Aib]L[βAla]-{NH((S)CH(Me)CH2NHC2H4OH)}),> 10000 nM,> 10000 nM,> 10000 nM,> 10000 nM
CCCCCCCC[C@H](NC(=O)C(C)(C)NC(=O)C(C)(C)NC(=O)[C@H](Cc1c[nH]cn1)NC(=O)[C@@H]1CCCN1C(=O)CCC)C(=O)N[C@@H](CC(C)C)C(=O)NC(C)(C)C(=O)N[C@@H](CC(C)C)C(=O)NCCC(=O)N[C@@H](C)CNCCO (Butyryl-PH[Aib][Aib][Gly(octyl)]L[Aib]L[βAla]-{NH((S)CH(Me)CH2NHC2H4OH)}),456 nM,151 nM,136 nM,> 1000 nM
CCCCCCCC[C@H](NC(=O)C(C)(C)NC(=O)C(C)(C)NC(=O)[C@H](Cc1ccc(O)cc1)NC(=O)[C@@H]1CCCN1C(=O)CCC)C(=O)N[C@@H](CC(C)C)C(=O)NC(C)(C)C(=O)N[C@@H](CC(C)C)C(=O)NCCC(=O)N[C@@H](C)CNCCO (Butyryl-PY[Aib][Aib][Gly(octyl)]L[Aib]L[βAla]-{NH((S)CH(Me)CH2NHC2H4OH)}),71 nM,32 nM,35 nM,155 nM
CCCC(=O)N1CCC[C@H]1C(=O)N[C@@H](C[C@H](C)C[C@@H](O)CC(=O)CC)C(=O)NC(C)(C)C(=O)NC(C)(C)C(=O)N[C@H](C(=O)N[C@@H](CC(C)C)C(=O)NC(C)(C)C(=O)N[C@@H](CC(C)C)C(=O)NCCC(=O)N[C@@H](C)CNCCO)[C@@H](C)CC (Butyryl-P[X1][Aib][Aib]IL[Aib]L[βAla]-{NH((S)CH(Me)CH2NHC2H4OH)}),> 500 nM,251 nM,142 nM,> 1000 nM
CCCCCCCC[C@H](NC(=O)C(C)(C)NC(=O)C(C)(C)NC(=O)C1(NC(=O)[C@@H]2CCCN2C(=O)CCC)CCCCC1)C(=O)N[C@@H](CC(C)C)C(=O)NC(C)(C)C(=O)N[C@@H](CC(C)C)C(=O)NCCC(=O)N[C@@H](C)CNCCO (Butyryl-P[Ac6c][Aib][Aib][Gly(octyl)]L[Aib]L[βAla]-{NH((S)CH(Me)CH2NHC2H4OH)}),39 nM,25 nM,31 nM,96 nM
CCCCCCCC[C@H](NC(=O)C(C)(C)NC(=O)C(C)(C)NC(=O)[C@H](CCCC(=O)CCCC)NC(=O)C1CCCN1C(=O)CCC)C(=O)N[C@@H](CC(C)C)C(=O)N[C@@H](C)C(=O)N[C@@H](C)C(=O)NCCC(=O)N[C@@H](C)CNCCO (stereo partly drawn) (Butyryl-[ξP][Nva(5-pentanoyl)][Aib][Aib][Gly(octyl)]LAA[βAla]-{NH((S)CH(Me)CH2NHC2H4OH)}),96 nM,101 nM,314 nM,> 1000 nM
CCCC[C@H](NC(=O)C(C)(C)NC(=O)C(C)(C)NC(=O)[C@H](C[C@H](C)C[C@@H](O)CC(=O)CC)NC(=O)[C@@H]1CCCN1C(=O)CCC)C(=O)N[C@@H](CC(C)C)C(=O)NC(C)(C)C(=O)N[C@@H](CC(C)C)C(=O)NCCC(=O)N[C@@H](C)CNCCO (Butyryl-P[X1][Aib][Aib][Nle]L[Aib]L[βAla]-{NH((S)CH(Me)CH2NHC2H4OH)}),> 500 nM,124 nM,90 nM,> 1000 nM
CCCCCCCC[C@H](NC(=O)C(C)(C)NC(=O)C(C)(C)NC(=O)C(C)(C)NC(=O)[C@@H]1CCCN1C(=O)CCC)C(=O)N[C@@H](CC(C)C)C(=O)NC(C)(C)C(=O)N[C@@H](CC(C)C)C(=O)NCCC(=O)N[C@@H](C)CNCCO (Butyryl-P[Aib][Aib][Aib][Gly(octyl)]L[Aib]L[βAla]-{NH((S)CH(Me)CH2NHC2H4OH)}),57 nM,29 nM,48 nM,150 nM
CCCCCCCC[C@H](NC(=O)C(C)(C)NC(=O)C(C)(C)NC(=O)CNC(=O)[C@@H]1CCCN1C(=O)CCC)C(=O)N[C@@H](CC(C)C)C(=O)NC(C)(C)C(=O)N[C@@H](CC(C)C)C(=O)NCCC(=O)N[C@@H](C)CNCCO (Butyryl-PG[Aib][Aib][Gly(octyl)]L[Aib]L[βAla]-{NH((S)CH(Me)CH2NHC2H4OH)}),133 nM,87 nM,76 nM,310 nM
CCCCCCCC[C@H](NC(=O)C(C)(C)NC(=O)C(C)(C)NC(=O)[C@H](CCCC(=O)CCCC)NC(=O)C1CCCN1C(=O)CCC)C(=O)N[C@@H](CC(C)C)C(=O)N[C@@H](C)C(=O)N[C@@H](CC(C)C)C(=O)NCCC(=O)N[C@@H](C)CNCCO (stereo partly drawn) (Butyryl-[ξP][Nva(5-pentanoyl)][Aib][Aib][Gly(octyl)]LAL[βAla]-{NH((S)CH(Me)CH2NHC2H4OH)}),266 nM,> 1000 nM,> 1000 nM,> 1000 nM
CCCCCCCC[C@H](NC(=O)C(C)(C)NC(=O)C(C)(C)NC(=O)C1(NC(=O)[C@@H]2CCCN2C(=O)CCC)CCCC1)C(=O)N[C@@H](CC(C)C)C(=O)NC(C)(C)C(=O)N[C@@H](CC(C)C)C(=O)NCCC(=O)N[C@@H](C)CNCCO (Butyryl-P[Ac5c][Aib][Aib][Gly(octyl)]L[Aib]L[βAla]-{NH((S)CH(Me)CH2NHC2H4OH)}),36 nM,29 nM,29 nM,118 nM

# The next lines start with the values.
IC50 [1],IC50 [2],IC50 [3],IC50 [4],Structure (SMILES)
17 nM,16 nM,21 nM,72 nM,CCCCCCCC[C@H](NC(=O)C(C)(C)NC(=O)C(C)(C)NC(=O)[C@@H](NC(=O)[C@@H]1CCCN1C(=O)CCC)C12CC3CC(CC(C3)C1)C2)C(=O)N[C@@H](CC(C)C)C(=O)NC(C)(C)C(=O)N[C@@H](CC(C)C)C(=O)NCCC(=O)N[C@@H](C)CNCCO (Butyryl-P[Gly(1-adamantyl)][Aib][Aib][Gly(octyl)]L[Aib]L[βAla]-{NH((S)CH(Me)CH2NHC2H4OH)})
19 nM,17 nM,16 nM,68 nM,CCCCCCCC[C@H](NC(=O)C(C)(C)NC(=O)C(C)(C)NC(=O)C1(NC(=O)[C@@H]2CCCN2C(=O)CCC)CCC1)C(=O)N[C@@H](CC(C)C)C(=O)NC(C)(C)C(=O)N[C@@H](CC(C)C)C(=O)NCCC(=O)N[C@@H](C)CNCCO (Butyryl-P[Ac4c][Aib][Aib][Gly(octyl)]L[Aib]L[βAla]-{NH((S)CH(Me)CH2NHC2H4OH)})
6 nM,8 nM,10 nM,21 nM,CCCCCCCC[C@H](NC(=O)C(C)(C)NC(=O)C(C)(C)NC(=O)[C@@H](NC(=O)[C@@H]1CCCN1C(=O)CCC)C1CCCCC1)C(=O)N[C@@H](CC(C)C)C(=O)NC(C)(C)C(=O)N[C@@H](CC(C)C)C(=O)NCCC(=O)N[C@@H](C)CNCCO (Butyryl-P[Chg][Aib][Aib][Gly(octyl)]L[Aib]L[βAla]-{NH((S)CH(Me)CH2NHC2H4OH)})
2 nM,4 nM,3 nM,12 nM,CCCCCCCC[C@H](NC(=O)C(C)(C)NC(=O)C(C)(C)NC(=O)[C@H](CC1CCCCC1)NC(=O)[C@@H]1CCCN1C(=O)CCC)C(=O)N[C@@H](CC(C)C)C(=O)NC(C)(C)C(=O)N[C@@H](CC(C)C)C(=O)NCCC(=O)N[C@@H](C)CNCCO (Butyryl-P[Cha][Aib][Aib][Gly(octyl)]L[Aib]L[βAla]-{NH((S)CH(Me)CH2NHC2H4OH)})
8 nM,10 nM,10 nM,29 nM,CCCCCCCC[C@H](NC(=O)C(C)(C)NC(=O)C(C)(C)NC(=O)[C@H](CC1CC1)NC(=O)[C@@H]1CCCN1C(=O)CCC)C(=O)N[C@@H](CC(C)C)C(=O)NC(C)(C)C(=O)N[C@@H](CC(C)C)C(=O)NCCC(=O)N[C@@H](C)CNCCO (Butyryl-P[Ala(cPr)][Aib][Aib][Gly(octyl)]L[Aib]L[βAla]-{NH((S)CH(Me)CH2NHC2H4OH)})
249 nM,166 nM,262 nM,> 1000 nM,CCCCCCCC[C@H](NC(=O)C(C)(C)NC(=O)C(C)(C)NC(=O)[C@H](CS)NC(=O)[C@@H]1CCCN1C(=O)CCC)C(=O)N[C@@H](CC(C)C)C(=O)NC(C)(C)C(=O)N[C@@H](CC(C)C)C(=O)NCCC(=O)N[C@@H](C)CNCCO (Butyryl-PC[Aib][Aib][Gly(octyl)]L[Aib]L[βAla]-{NH((S)CH(Me)CH2NHC2H4OH)})
10 nM,8 nM,11 nM,43 nM,CCCCCCCC[C@H](NC(=O)C(C)(C)NC(=O)C(C)(C)NC(=O)[C@H](CCSC)NC(=O)[C@@H]1CCCN1C(=O)CCC)C(=O)N[C@@H](CC(C)C)C(=O)NC(C)(C)C(=O)N[C@@H](CC(C)C)C(=O)NCCC(=O)N[C@@H](C)CNCCO (Butyryl-PM[Aib][Aib][Gly(octyl)]L[Aib]L[βAla]-{NH((S)CH(Me)CH2NHC2H4OH)})
